Experimental data taken from US20110206781A1, “METHOD TO MODULATE HEMATOPOIETIC STEM CELL GROWTH” (priority 2008, published 2011).

What was measured:
[1] = system: runx1/cmyb+ HSCs in the zebrafish AGM; assay: runx1/cmyb in situ hybridization for HSC formation in zebrafish embryos at 36 hpf; type: in vivo; design: effect on HSC formation at 36 hpf when treatment occurred before the onset of heartbeat: dose or concentration left out as unconfirmed
Source text: In Situ Hybridizataion: Paraformaldehyde-fixed embryos were processed for in situ hybridization according to standard zebrafish protocols. Such protocols are available on-line through the The Zebrafish Model Organism Database. The following RNA probes were used: runx1, cmyb, flk1, ephrinB2, flt4, globin, mpo, mhc, and foxa3. Changes in expression compared to WT controls are reported as the number altered/number scored per genotype/treatment (North et al., 2007); a minimum of three independent experiments was conducted per analysis.
Chemical Exposure: Zebrafish embryos were exposed to chemicals at the doses indicated; dimethyl sulfoxide (DMSO) carrier content was 0.1%. For evaluation of HSC development, exposure ranged from early somitogenesis (5+ somites) until 36 hpf, unless otherwise noted.
(§1) Morpholino injection: Morpholino antisense oligonucleotides (MO; GENETOOLS, LLC, Philomath, Oreg.) designed against the ATG and exonl splice sites of nos1 (5′-[…] [SEQ. ID NO:1]; 5′-[…] [SEQ ID NO:2), nos2 (5′-[…] [SEQ ID NO:3]; 5′-[…] [SEQ ID NO:4]), and mismatched controls were injected into one-cell-stage embryos.

HSCs = assay: in vivo confocal imaging of HSC number in cmyb:GFP; lmo2:dsRed embryos; design: species or system zebrafish; settings: lmo2:dsRed reporter fish, p<0.001, n=5
Procedure: Confocal Microscopy: Fluorescent reporter embryos were exposed to blood flow modulators (10 μM, unless otherwise noted) as indicated, live embedded in 1% agarose, and imaged with a Zeiss LSM510 Meta confocal microscope at 36 hpf (North et al., 2007) or a Perkin Elmer UltaVIEW VoX spinning disk confocal microscope.

nos1 = assay: blastula transplantation of cmyb:GFP donor cells into lmo2:dsRed recipients; type: in vivo, zebrafish; settings: 36 hpf, p=0.0065
Procedure: Blastula Transplantation: cmyb: GFP embryos were injected with nos1 or control MO at the one-cell stage. At the blastula stage, 100 cells were removed from the donor embryo and transplanted into stage-matched recipients. Embryos were analyzed by confocal microscopy at 36 hpf.
as §1

Molecule: N=C(N)NCCC[C@H](N)C(=O)O [L-arg, L-arginine]
- effect on the sih hematopoietic defect (runx1/cmyb), in words ([1]; sih−/− embryos, 36 hpf): rescued the sih hematopoietic defect
- effect on HSCs (runx1/cmyb), in words ([1]; wild-type embryos, 36 hpf, bradykinin 10 μM): increased HSCs

Molecule: CC(=O)N[C@H](C(=O)O)C(C)(C)SN=O [SNAP, S-nitroso-N-acetyl-penicillamine]
- effect on HSC formation at 36 hpf when treatment occurred before the onset of heartbeat ([1]; exposure 10 somites-23 hpf): capable of enhancing HSC number
- HSC number by confocal microscopy (HSCs): increased HSC numbers

Molecule: nos1 ATG MO: morpholino antisense oligonucleotide against the ATG site of nos1, 5′-ACGCTGGGCTCTGATTCCTGCATTG, SEQ ID NO:1 (all phosphorodiamidate morpholino (PMO))
- donor cell contribution to GFP+ HSC formation in transplanted embryos (nos1): none
